We go through one compound from patent US20240299698A1, “PREVENTION AND TREATMENT OF POST-OPERATIVE COGNITIVE DYSFUNCTION (POCD)” (Noetix Pharma LLC, priority 2022, published 2024).

SMILES strings stand for the structures. Bounds are passed on as bounds.

Data set [1] is described as follows: Stability of pirfenidone dose preparation in vehicle. The data set is classed as physicochemical. Particulars: 0.9% saline. How it is done: • Vehicle: 0.9% saline • Working concentration: 66.67 mg/ml • Preparation: Add 1000 mg of pirfenidone to 15 mL of 0.9% saline • Stability in vehicle: Stable for a minimum of 8 days
• Vehicle: 0.9% saline • Working concentration: 33.33 mg/mL • Preparation: Add 12 mL of high dose pirfenidone to 12 mL of 0.9% saline • Stability in vehicle: Stable for a minimum of 8 days

For data set [2] the following is noted: Macias-Barragan J, et al.; cited from earlier work.
The test system of data set [3] is hippocampal microglial cells. The data set is described as follows: Evaluation of hippocampal microglial cell morphology (Iba1 immunohistochemistry). It counts as in vivo, Male C57BI/6 mice. As to conditions: for Iba1-positive microglial cell morphology (activated characteristics), rank 0-2: 8 days post-surgery, n=8. How it is done:
A subset of mice was evaluated to compare acute and chronic treatment of pirfenidone paradigms against Normal Control and Disease Control tissues (n=8/treatment group). A neuroinflammation marker, ionizing calcium binding adaptor molecule 1 (Iba1), was investigated in the hippocampus as an indication of the level of inflammatory response. The hippocampus is particularly vulnerable to both acute and chronic stressors, including those triggered by physical trauma.
The right hemispheres of a subsection of study mice were evaluated via fluorescent IHC analysis to investigate the impact of laparotomy and drug intervention on hippocampal inflammatory mechanisms. Iba1 was assessed as a marker of neuroinflammation because it is indicative of inflammatory response in the central nervous system.
Cryoprotected hemispheres were blocked in OCT compound (Thermofisher) and stored at −80° C. until sectioning. […]
• To obtain micrographs for quantification • Fluorescent microscope (Zeiss Axio Observer Z1) Apotome.2 imaging system Zeiss imaging software (Zen 2 Blue edition) • Settings were manually selected to allow visualization of signal on all sections (signal must be visible on low intensity sections but must not be overexposed on high intensity sections). […]
Ionized calcium-binding adapter molecule 1 (Iba1) is a microglia-specific calcium-binding protein that participates in phagocytosis in activated microglia. […] Iba1 is thus a sensitive marker of inflammation and is quantified by measuring the intensity of the Iba1 positive signal. […]
Hippocampal tissue from the right hemispheres was evaluated for functional cell morphology using non-parametric rank ordering of tissue as follows: • 0=normal morphology (ramified, mostly ramified) • 1=moderate morphology (ramified-activated) • 2=activated morphology (activated, activated ameboid, ameboid)

With `Cc1ccc(=O)n(-c2ccccc2)c1` [pirfenidone, 5-methyl-1-phenyl-2-(1H)-pyridone], the Stability in vehicle in data set [1] (33.33 mg/mL (low dose)) and in data set [1] (66.67 mg/ml (high dose)) was at least 8 days throughout. For the same compound, the “crossing of the blood brain barrier” value in data set [2] is “can cross the blood brain barrier”. Besides, the “Iba1-positive microglial cell morphology (activated characteristics), rank 0-2” value in data set [3] (Acute) and in data set [3] (Chronic) was “reduced this microglial activation” each time. The “microglial activation in the hippocampus (summary)” value in data set [3] (summary statement, regimen not distinguished) is recorded as “reduced microglial activation in the hippocampus”.
